This passage reports relative viability results from the supplement of paper PMC10307832.

Assay in all cases: relative viability (nuclei count vs DMSO), 5 days (fraction); higher = more cells survive
Compound in the assay “Quizartinib + Trametinib”: CC(C)(C)c1cc(NC(=O)Nc2ccc(-c3cn4c(n3)sc3cc(OCCN5CCOCC5)ccc34)cc2)no1 [Quizartinib] + CC(=O)Nc1cccc(-n2c(=O)n(C3CC3)c(=O)c3c(Nc4ccc(I)cc4F)n(C)c(=O)c(C)c32)c1 [Trametinib] (partner 0.02 µM)
The essentials:
(§1)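 The day after seeding in 1536-well plates, lung cancer cell lines were treated by pin tool with a single drug, or with a fixed anchor-drug dose together with five library-drug doses (not always all listed) in √10 steps. After 5 days, a combined fix-and-stain solution (final 0.05% Triton X-100, 1% formaldehyde, 1 ug/ml Hoechst) was added. Nuclei counted on 4× images gave relative viability as treated counts over vehicle counts, reported as the median of duplicate plates.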

Compound in the assay “Quizartinib + Alpelisib”: CC(C)(C)c1cc(NC(=O)Nc2ccc(-c3cn4c(n3)sc3cc(OCCN5CCOCC5)ccc34)cc2)no1 [Quizartinib] + Cc1nc(NC(=O)N2CCC[C@H]2C(N)=O)sc1-c1ccnc(C(C)(C)C(F)(F)F)c1 [Alpelisib] (partner 2 µM)
The essentials:
as §1

Compound in the assay “Quizartinib + Phenformin”: CC(C)(C)c1cc(NC(=O)Nc2ccc(-c3cn4c(n3)sc3cc(OCCN5CCOCC5)ccc34)cc2)no1 [Quizartinib] + N=C(N)NC(=N)NCCc1ccccc1 [Phenformin] (partner 250 µM)
The essentials: as §1

Compound in the assay “YM155 + Vorinostat”: COCC[n+]1c2c(n(Cc3cnccn3)c1C)C(=O)c1ccccc1C2=O [YM155] + O=C(CCCCCCC(=O)Nc1ccccc1)NO [Vorinostat] (partner 1 µM)
The essentials:
as §1

With NCI-H1437, the relative viability with Quizartinib + Trametinib (first compound 0.001 µM) is 0.458; with Quizartinib + Trametinib (first compound 0.003162 µM), 0.482; in the assay with Quizartinib + Trametinib (first compound 0.01 µM) it was 0.492; with Quizartinib + Trametinib (first compound 0.03162 µM), 0.49; with Quizartinib + Trametinib (first compound 0.1 µM) it was 0.346; in the assay with Quizartinib + Alpelisib (first compound 0.001 µM) it was 0.911. Also, the relative viability with Quizartinib + Alpelisib (first compound 0.003162 µM) was 0.883; in the assay with Quizartinib + Alpelisib (first compound 0.01 µM) it was 1.13; with Quizartinib + Alpelisib (first compound 0.03162 µM), 0.749; with Quizartinib + Alpelisib (first compound 0.1 µM), 0.711; in the assay with Quizartinib + Phenformin (first compound 0.001 µM) it was 0.274; with Quizartinib + Phenformin (first compound 0.003162 µM), 0.277. The relative viability with Quizartinib + Phenformin (first compound 0.01 µM) is 0.294; in the assay with Quizartinib + Phenformin (first compound 0.03162 µM), 0.208; with Quizartinib + Phenformin (first compound 0.1 µM), 0.172; in the assay with YM155 + Vorinostat (first compound 0.002 µM), 0.83; with YM155 + Vorinostat (first compound 0.006325 µM), 0.809; with YM155 + Vorinostat (first compound 0.02 µM) it was 0.833. In addition, in the assay with YM155 + Vorinostat (first compound 0.06325 µM), the relative viability stood at 0.432.
On to NCI-H1651, for which the relative viability in the assay with Quizartinib + Trametinib (first compound 0.001 µM) turned out to be 0.715; with Quizartinib + Trametinib (first compound 0.003162 µM), 0.785; in the assay with Quizartinib + Trametinib (first compound 0.01 µM), 0.898; in the assay with Quizartinib + Trametinib (first compound 0.03162 µM), 0.797; in the assay with Quizartinib + Trametinib (first compound 0.1 µM), 0.859; with Quizartinib + Alpelisib (first compound 0.001 µM), 0.749. Besides, the relative viability with Quizartinib + Alpelisib (first compound 0.003162 µM) came out at 0.872; with Quizartinib + Alpelisib (first compound 0.01 µM) it was 1.04; in the assay with Quizartinib + Alpelisib (first compound 0.03162 µM) it was 0.751; with Quizartinib + Alpelisib (first compound 0.1 µM), 0.904; with Quizartinib + Phenformin (first compound 0.001 µM), 0.41; in the assay with Quizartinib + Phenformin (first compound 0.003162 µM), 0.268. The relative viability with Quizartinib + Phenformin (first compound 0.01 µM) turned out to be 0.35; with Quizartinib + Phenformin (first compound 0.03162 µM) it was 0.231; with Quizartinib + Phenformin (first compound 0.1 µM), 0.272; in the assay with YM155 + Vorinostat (first compound 0.002 µM), 0.569; with YM155 + Vorinostat (first compound 0.006325 µM) it was 0.538; with YM155 + Vorinostat (first compound 0.02 µM), 0.586. For the same cell line, the relative viability in the assay with YM155 + Vorinostat (first compound 0.06325 µM) was found to be 0.605.
Turning to NCI-H1666, the relative viability worked out at 0.856 with Quizartinib + Trametinib (first compound 0.001 µM); 0.746 with Quizartinib + Trametinib (first compound 0.003162 µM); 0.888 with Quizartinib + Trametinib (first compound 0.01 µM); 0.79 with Quizartinib + Trametinib (first compound 0.03162 µM); 0.772 with Quizartinib + Trametinib (first compound 0.1 µM); 0.793 with Quizartinib + Alpelisib (first compound 0.001 µM). For the same cell line, the relative viability with Quizartinib + Alpelisib (first compound 0.003162 µM) is 0.956; in the assay with Quizartinib + Alpelisib (first compound 0.01 µM), 1.03; in the assay with Quizartinib + Alpelisib (first compound 0.03162 µM) it was 0.742; with Quizartinib + Alpelisib (first compound 0.1 µM), 1.02; with Quizartinib + Phenformin (first compound 0.001 µM), 0.581; in the assay with Quizartinib + Phenformin (first compound 0.003162 µM) it was 0.433. In addition, the relative viability turned out to be 0.569 with Quizartinib + Phenformin (first compound 0.01 µM); 0.568 with Quizartinib + Phenformin (first compound 0.03162 µM); 0.54 with Quizartinib + Phenformin (first compound 0.1 µM); 0.923 in the assay with YM155 + Vorinostat (first compound 0.002 µM); 1.11 in the assay with YM155 + Vorinostat (first compound 0.006325 µM); 1.03 with YM155 + Vorinostat (first compound 0.02 µM). Further, in the assay with YM155 + Vorinostat (first compound 0.06325 µM), the relative viability amounted to 1.03.
Turning to NCI-H1734, the relative viability with Quizartinib + Trametinib (first compound 0.001 µM) is 0.604; with Quizartinib + Trametinib (first compound 0.003162 µM) it was 0.64; with Quizartinib + Trametinib (first compound 0.01 µM), 0.78; with Quizartinib + Trametinib (first compound 0.03162 µM), 0.571; in the assay with Quizartinib + Trametinib (first compound 0.1 µM), 0.698; with Quizartinib + Alpelisib (first compound 0.001 µM) it was 0.561. Besides, the relative viability with Quizartinib + Alpelisib (first compound 0.003162 µM) was found to be 0.716; in the assay with Quizartinib + Alpelisib (first compound 0.01 µM) it was 0.642; with Quizartinib + Alpelisib (first compound 0.03162 µM) it was 0.699; with Quizartinib + Alpelisib (first compound 0.1 µM), 0.665; in the assay with Quizartinib + Phenformin (first compound 0.001 µM) it was 0.3; with Quizartinib + Phenformin (first compound 0.003162 µM), 0.338. Also, the relative viability with Quizartinib + Phenformin (first compound 0.01 µM) came to 0.48; with Quizartinib + Phenformin (first compound 0.03162 µM), 0.391; in the assay with Quizartinib + Phenformin (first compound 0.1 µM), 0.387; with YM155 + Vorinostat (first compound 0.002 µM), 0.826; with YM155 + Vorinostat (first compound 0.006325 µM), 0.799; with YM155 + Vorinostat (first compound 0.02 µM), 0.891. Besides, the relative viability in the assay with YM155 + Vorinostat (first compound 0.06325 µM) was 0.84.
